Results reported in patent US9822074B2, “Dihydropyridinone MGAT2 inhibitors” (BRISTOL-MYERS SQUIBB COMPANY, priority 2013, dated 2017).

Target: human MGAT2 (Homo sapiens (Human), UniProt Q3SYC2)
Experiment: MGAT LCMS Assay (MGAT2 in vitro enzyme assay)
Assay type: biochemical
Details: Human MGAT-2 membranes expressed in Sf9 cells; 100 μM 2-oleoylglycerol, 15 μM oleoyl-Coenzyme A; read-out: h-MGAT LCMS IC50
Protocol: The MGAT enzyme reactions were performed in Corning FALCON® 96-well Polypropylene plates, in a total volume of 60 μL of 50 mM Potassium Phosphate buffer pH 7.4, containing a final concentration of 100 μM 2-oleoylglycerol, 15 μM oleoyl-Coenzyme A and 0.0013 μg/μL Human or Mouse MGAT-2 or 0.0026 μg/μL Rat recombinant MGAT-2 membranes expressed in Sf9 cells. Assay plates were run through a fully automated robotics system and shaken for 5 seconds every minute for a total 10 minutes. The reactions were then quenched with 120 μL of ice cold methanol containing 1 μg/mL 1,2-distearoyl-rac-glycerol as the internal standard. Plates were shaken for 2 minutes and spun down to remove protein precipitation. After the spin, samples were transferred to LC/MS compatible PCR plates. For LC/MS analysis, a ThermoFisher Surveyor pump, utilizing a Waters Symmetry C8, 50×2.1 mm column, was used for the chromatography of enzyme products. The buffer system consists of 0.1% formic acid in water with a mobile phase consisting 0.1% formic acid in methanol. The shallow gradient is 90-100% mobile phase in 0.2 min with a total run time of 2.3 min. The first 0.5 minutes of each injection was diverted to waste to eliminate the presence of Phosphate buffer in the enzymatic reaction. The column was run at 0.6 mL/min and a temperature of 65° C. […]

human MGAT2, sequence (Q3SYC2 whole entry): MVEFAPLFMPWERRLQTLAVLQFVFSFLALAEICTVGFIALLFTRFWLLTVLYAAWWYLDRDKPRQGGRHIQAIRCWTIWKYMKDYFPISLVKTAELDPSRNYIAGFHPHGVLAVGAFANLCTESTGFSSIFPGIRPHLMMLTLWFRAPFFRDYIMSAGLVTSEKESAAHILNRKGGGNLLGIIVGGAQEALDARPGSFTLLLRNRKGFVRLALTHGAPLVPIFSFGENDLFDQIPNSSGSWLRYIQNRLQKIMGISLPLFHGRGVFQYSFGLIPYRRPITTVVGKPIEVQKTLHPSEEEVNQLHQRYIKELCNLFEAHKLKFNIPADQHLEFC

Row | SMILES | IC50
1 | O=C1N[C@@](c2ccc(CCCCC(F)(F)F)cc2F)(C(F)(F)F)CC(c2ccn(C3CCC3)n2)=C1C(=O)NS(=O)(=O)C1CC1 [Example 50, (S)-4-(1-cyclobutyl-1H-pyrazol-3-yl)-N-(cyclopropylsulfonyl)-6-(2-fluoro-4-(5,5,5-trifluoropentyl)phenyl)-2-oxo-6-(trifluoromethyl)-1,2,5,6-tetrahydropyridine-3-carboxamide] | 16 nM
2 | CC(C)n1ccc(C2=C(C(=O)NS(=O)(=O)C3CC3)C(=O)N[C@@](c3ccc(CCCCC(F)(F)F)cc3F)(C(F)(F)F)C2)n1 [Example 49, (S)-N-(cyclopropylsulfonyl)-6-(2-fluoro-4-(5,5,5-trifluoropentyl)phenyl)-4-(1-isopropyl-1H-pyrazol-3-yl)-2-oxo-6-(trifluoromethyl)-1,2,5,6-tetrahydropyridine-3-carboxamide] | 35 nM
